These results are taken from patent US6875775B2, “Triphenylalkene derivatives and their use as selective estrogen receptor modulators” (Hormos Medical Oy LTD, priority 1999, dated 2005).

Where two headings read alike, the source gives them in different places.

The test system of the assay is MCF-7 cells. Briefly: cells. Particulars: for Maximal Cell Kill (% fraction of dead cells) / cytotoxicity at 10 µM: 10 μmol/l; for Maximal Agonism (% of E2) / Emax: maximal growth stimulus at any concentration, 4 days; for cytotoxicity at 10 µM / inhibition at 1 µM / Emax: Homo sapiens, MCF7, 96 h; for cytotoxicity at 10 µM: read-out: Maximal Cell Kill (% fraction of dead cells); for inhibition at 1 µM: read-out: Antagonism at 1 μM (% of full antagonism); for Emax: read-out: Maximal Agonism (% of E2); for Killing of MCF-7 cells at the highest investigated concentration (in words): 10 μM, compounds with weak hormonal activity. It is filed as cell-based. How it is done:
Evaluation of Estrogenic and Antiestrogenic Properties of Compounds in MCF-7 Cell Growth Experiments in Vitro
For experiments involving hormone or anti-hormone treatment, the cells in exponential growth phase were precultivated in the absence of estradiol for one day. […] After the incubation period the medium was removed. The exposure to study drugs was started immediately by adding fresh medium with 5% stripped serum. Half of the cells were grown with estradiol, half without estradiol. Study compounds (dissolved in ethanol in 0.01 M concentration and diluted with the growth medium as appropriate) were added. The final concentrations of the compounds were 1, 10, and 100 nM, and 1 and 10 μM. The cells were incubated for four days.
This method allows evaluation of estrogenicity based on the ability of the compounds to stimulate the growth of the estrogen-dependent cells in the absence of estradiol.
Estrogenicity was estimated by comparing the maximal growth stimulus (at any concentration) of study compound as percent from growth stimulus by estradiol (100% stimulus). […] At high concentrations molecules may also show toxicity. Toxicity was estimated as the fraction of dead cells (i.e. 100% means that all cells have died during the exposure).

On to `CCCCN(C)C(=O)CCCCCCCCCC[C@@H]1Cc2cc(O)ccc2[C@H]2CC[C@]3(C)[C@@H](O)CC[C@H]3[C@H]12` [ICI 164,384, reference compound], for which, where the note is “With estradiol (E2)”, the “Antagonism at 1 μM (% of full antagonism)” value was 100 % of full antagonism and the “Maximal Cell Kill (% fraction of dead cells)” value is 100 % fraction of dead cells. In addition, where the note is “Without estradiol (E2)”, the “Maximal Cell Kill (% fraction of dead cells)” value is recorded as 100 % fraction of dead cells and the “Maximal Agonism (% of E2)” value is 9 % of E2.
Regarding `ClCCOc1ccc(/C(=C(/CCCl)c2ccc(Cl)cc2)c2ccc(Cl)cc2)cc1` [No. 6, (E)-4-Chloro-1-[4-(2-chloroethoxy)phenyl]-1,2-bis(4-chlorophenyl)-but-1-ene], for the setting “With estradiol (E2)”, the cytotoxicity at 10 µM was determined as 40% and the inhibition at 1 µM worked out at 16%. For the same compound, where the note is “Without estradiol (E2)”, the cytotoxicity at 10 µM was 47% and the Emax amounted to 0%.
As to `ClCCOCCOc1ccc(/C(=C(/CCCl)c2ccccc2)c2ccc(Cl)cc2)cc1` [No. 14], for the setting “With estradiol (E2)”, the “Antagonism at 1 μM (% of full antagonism)” value is on record as 27 % of full antagonism and the “Maximal Cell Kill (% fraction of dead cells)” value is listed as 57 % fraction of dead cells. Where the note is “Without estradiol (E2)”, the “Maximal Cell Kill (% fraction of dead cells)” value is given as 10 % fraction of dead cells and the “Maximal Agonism (% of E2)” value is 12 % of E2.
With `Fc1ccc(/C(=C(\CCCl)c2ccccc2)c2ccc(OCCOCCCl)cc2)cc1` [No. 15], for the setting “With estradiol (E2)”, the “Antagonism at 1 μM (% of full antagonism)” value was 5 % of full antagonism and the “Maximal Cell Kill (% fraction of dead cells)” value is recorded as 9 % fraction of dead cells. For the setting “Without estradiol (E2)”, the “Maximal Cell Kill (% fraction of dead cells)” value is on record as 82 % fraction of dead cells and the “Maximal Agonism (% of E2)” value is 74 % of E2.
Consider `OCCOc1ccc(C(=C(CCCl)c2ccccc2)c2ccc(OCCO)cc2)cc1` [No. 16, 2-(4-{4-Chloro-1-[4-(2-hydroxyethoxy)phenyl]-2-phenyl-but-1-enyl}phenoxy)1-ethanol], for which the “Killing of MCF-7 cells at the highest investigated concentration (in words)” value (“Killing of MCF-7 cells” for short) was “kill MCF-7 cells (human breast cancer cells) effectively”.
Consider `ClCC/C(=C(\c1ccccc1)c1ccc(OCCn2ccnc2)cc1)c1ccccc1` [No. 21, (Z)-1-{2-[4-(4-Chloro-1,2-diphenyl-but-1-enyl)phenoxy]ethyl}-1H-imidazole], for which, where the note is “With estradiol (E2)”, the cytotoxicity at 10 µM came out at 91% and the inhibition at 1 µM came to 0%. Besides, for the setting “Without estradiol (E2)”, the cytotoxicity at 10 µM amounted to 80% and the Emax came to 5%.
For `CN(CCO)CCOc1ccc(/C(=C(/CCCl)c2ccccc2)c2ccccc2)cc1` [No. 22, (Z)-2-({2-[4-(4-Chloro-1,2-diphenyl-but-1-enyl)phenoxy]ethyl}methylamino)ethanol], under “With estradiol (E2)”, the cytotoxicity at 10 µM came out at 41% and the inhibition at 1 µM was determined as 12%. Further, for the setting “Without estradiol (E2)”, the cytotoxicity at 10 µM stood at 15% and the Emax was determined as 1%.
For the compound `COc1ccc(/C(=C(\CCCl)c2ccc(Cl)cc2)c2ccc(OCCN(C)C)cc2)cc1` [No. 26, (Z)-(2-{4-[4-Chloro-2-(4-chlorophenyl)-1-(4-methoxyphenyl)but-1-enyl]phenoxy}-ethyl)dimethylamine], the “Killing of MCF-7 cells” value was “kill MCF-7 cells (human breast cancer cells) effectively”.
For the compound `COc1ccc(/C(=C(/CCCl)c2ccc(Cl)cc2)c2ccc(OCCN(C)C)cc2)cc1` [No. 27, (E)-(2-{4-[4-Chloro-2-(4-chlorophenyl)-1-(4-methoxyphenyl)but-1-enyl]phenoxy}-ethyl)dimethylamine], the “Killing of MCF-7 cells” value is “kill MCF-7 cells (human breast cancer cells) effectively”.
For the compound `COc1cccc(/C(CCCl)=C(/c2ccccc2)c2ccc(OCCN3CCCCC3)cc2)c1` [No. 28, (Z)-1-(2-{4-[4-Chloro-2-(3-methoxyphenyl)-1-phenylbut-1-enyl]phenoxy}-ethyl)piperidine], under “With estradiol (E2)”, the cytotoxicity at 10 µM amounted to 92% and the inhibition at 1 µM was 18%. Moreover, for the setting “Without estradiol (E2)”, the cytotoxicity at 10 µM is 86% and the Emax worked out at 3%.
`COc1ccccc1/C(CCCl)=C(/c1ccccc1)c1ccc(OCCN2CCCCC2)cc1` [No. 30, (Z)-1-(2-{4-[4-Chloro-2-(2-methoxyphenyl)-1-phenylbut-1-enyl]phenoxy}-ethyl)piperidine]: where the note is “With estradiol (E2)”, the cytotoxicity at 10 µM came to 92% and the inhibition at 1 µM turned out to be 4%. For the same compound, under “Without estradiol (E2)”, the cytotoxicity at 10 µM amounted to 91% and the Emax stood at 5%.
With `OCCCOc1ccc(/C(=C(/CCCl)c2ccccc2)c2ccccc2)cc1` [No. 35, (Z)-3-[4-(4-Chloro-1,2-diphenylbut-1-enyl)phenoxy]propan-1-ol], the Emax (Without estradiol (E2)) came to 45%.
`ClCC/C(=C(\c1ccccc1)c1ccc(OCCN2CCCCC2)cc1)c1ccccc1Cl` [No. 38, (Z)-1-(2-{4-[4-Chloro-2-(2-chlorophenyl)-1-phenylbut-1-enyl]phenoxy}-ethyl)piperidine]: where the note is “With estradiol (E2)”, the cytotoxicity at 10 µM turned out to be 100% and the inhibition at 1 µM came out at 68%. Besides, where the note is “Without estradiol (E2)”, the cytotoxicity at 10 µM turned out to be 99% and the Emax is 0%.
As to `Oc1cccc(/C(=C(\CCCl)c2ccccc2)c2ccc(OCCn3ccnc3)cc2)c1` [No. 39, (E)-3-{4-Chloro-1-[4-(2-imidazol-1-yl-ethoxy)phenyl]-2-phenyl-but-1-enyl}-phenol], the “Killing of MCF-7 cells” value is recorded as “kill MCF-7 cells (human breast cancer cells) effectively”. Further, under “With estradiol (E2)”, the cytotoxicity at 10 µM came out at 78% and the inhibition at 1 µM is 17%. Further, for the setting “Without estradiol (E2)”, the cytotoxicity at 10 µM is 68% and the Emax came out at 0%.
Turning to `Oc1cccc(/C(=C(/CCCl)c2ccccc2)c2ccc(OCCn3ccnc3)cc2)c1` [No. 40, (Z)-3-{4-Chloro-1-[4-(2-imidazol-1-yl-ethoxy)phenyl]-2-phenyl-but-1-enyl}-phenol], the “Killing of MCF-7 cells” value is on record as “kill MCF-7 cells (human breast cancer cells) effectively”. For the same compound, for the setting “With estradiol (E2)”, the cytotoxicity at 10 µM is 46% and the inhibition at 1 µM is 3%. Under “Without estradiol (E2)”, the cytotoxicity at 10 µM is 63% and the Emax worked out at 0%.
For `OCCNc1ccc(/C(=C(/CCCl)c2ccccc2)c2ccccc2)cc1` [No. 41, (Z)-2-[4-(4-Chloro-1,2-diphenyl-but-1-enyl)phenylamino]ethanol], under “With estradiol (E2)”, the cytotoxicity at 10 µM is 47% and the inhibition at 1 µM was determined as 10%. Further, for the setting “Without estradiol (E2)”, the cytotoxicity at 10 µM worked out at 0% and the Emax came to 54%.
`CCC(O)(CC)COc1ccc(/C(=C(/CCCl)c2ccccc2)c2ccccc2)cc1` [No. 45, (Z)-3-[4-(4-Chloro-1,2-diphenylbut-1-enyl)phenoxymethyl]pentan-3-ol]: for the setting “With estradiol (E2)”, the cytotoxicity at 10 µM stood at 19% and the inhibition at 1 µM turned out to be 3%. Also, where the note is “Without estradiol (E2)”, the cytotoxicity at 10 µM was found to be 6% and the Emax is 15%.
Taken in the same sequence, the figures for `CCC(CO)Oc1ccc(/C(=C(/CCCl)c2ccccc2)c2ccccc2)cc1` (centres unmarked) [No. 46, (Z)-2-[4-(4-Chloro-1,2-diphenylbut-1-enyl)phenoxy]butan-1-ol] were 51%, 23%, 15% and 18%.
